Here are results for one compound from patent US20100196464A1, “ORLISTAT PHARMACEUTICAL FORMULATIONS” (DR. REDDY'S LABORATORIES LIMITED, priority 2007, published 2010).

For data set [1] the following is noted: physiological pH range; cited from earlier work.
For data set [2] the following is noted: cited from earlier work.
Data set [3] is described as follows: Bulk density and tapped density. It is filed as physicochemical. Particulars: orlistat used in the formulation of Example 6. From the text:
Other important physicochemical characteristics of powders are the density properties such as bulk and tapped density, weight variation and flow properties such as angle of repose. Bulk density is the undisturbed packing density of that substance and tapped bulk density relates to the packing density after tapping a bed of substance until no change in the packing density is seen. Bulk density and tapped density, can be determined using compendial bulk density apparatus, such as the method given in Test 616 “Bulk Density and Tapped Density,” United States Pharmacopeia 29, United States Pharmacopeial Convention, Inc., Rockville, Md., 2005 (“USP”). Weight variation can be determined using the method given in United States Pharmacopeia 29.

Data set [4] in a line: Particle size distribution. It is filed as physicochemical. From the text:
The term “average particle size” refers to particle sizes represented by D(0.5), wherein 50% of particles in a powder have sizes greater than, and 50% of particles have sizes less than, a specified value.
Various parameters impacting the preparation of solid oral dosage forms include the physical properties of active ingredients as well as those of the final blends of active ingredients with excipients, wherein the physical properties include flow properties, particle sizes (such as determined by sieve analyzers, electrical conductance instruments such as a Coulter counter, and laser light diffraction particle size analyzers such as the instruments available from Malvern Instruments, Ltd., Malvern, Worcestershire, United Kingdom), bulk densities and tapped densities, compressibility indexes, Hausner ratios (determined by USP density apparatus), flow properties (such as determined by Flowdex apparatus), etc.
The percent of particles with different dimensions that exist in a powder is called the particle size distribution. It is represented in certain ways. Particle size is the maximum dimension of a particle, normally expressed in units of μm. Particle size distributions can be expressed in terms of D(0.1), D(0.5), D(0.9) and D [4,3]. The D(0.1), D(0.5) and D(0.9) represent the 10th, median or the 50th percentile, and the 90th percentile of the particle size distribution, respectively. They can be expressed as volume, weight, or surface percentages. For example when measured by volume, D(0.1), D(0.5), D(0.9) is a value of the distribution such that 10%, 50%, 90% by volume of the particles have a size of this value or less, or is the percentage of particles smaller than that size. D(0.5) is also known as median diameter of particle. It is one of the important parameters representing characteristics of particle of powder. For a sample, if D(0.5)=5 μm, it means that 50% of the particles are smaller than 5 μm. Similarly, if D(0.1)=5 μm, 10% by volume of the particles are less than or equal to 5 μm, and if D(0.9)=5 μm, 90% of the particles are less than or equal to 5 μm. D[4,3] is the volume moment mean of the particles or the volume weighted particle size.

Setting [5] is: orlistat used in the formulation of Example 1.
[6] abbreviates: orlistat used in the formulation of Example 6.

Turning to `CCCCCCCCCCC[C@@H](C[C@@H]1OC(=O)[C@H]1CCCCCC)OC(=O)[C@H](CC(C)C)NC=O` [Orlistat, (S)-1-[[(2S,3S)-3-hexyl-4-oxo-2-oxetanyl]methyl]-dodecyl ester], the pKa result in data set [1] is “no pKa within the physiological pH range”. The Solubility in chloroform result in data set [2] (chloroform) is listed as “freely soluble”. Besides, the Solubility in ethanol entry in data set [2] (ethanol) is given as “very soluble”. The Solubility in methanol result in data set [2] (methanol) was “very soluble”. Also, the Solubility in water entry in data set [2] (water) was “practically insoluble”. In data set [3], this compound registered a Bulk density of 0.424 g/mL and a Tapped density of 0.571 g/mL. Moreover, in data set [4] (setting [5]), the “D(0.1)” value came out at 1.8 μm, the “D(0.5)” value came out at 8.6 μm and the “D(0.9)” value came out at 24.5 μm. Moreover, in data set [4] (setting [6]), the “D(0.1)” value was 18.7 μm, the “D(0.5)” value stood at 84.2 μm and the “D(0.9)” value was found to be 171.8 μm.
